# Source: ChEMBL document CHEMBL4507282, “Data for DCP probe BI-1950” (2021)
# Legend:
# [1] = target: Dual specificity mitogen-activated protein kinase kinase 4 (Homo sapiens) (UniProt P45985); conditions: Compound concentration 1000.0 nM
# [2] = target: Beta-1 adrenergic receptor (Homo sapiens) (UniProt P08588); conditions: Compound concentration 10.0 uM
# [3] = target: Tyrosine-protein kinase ABL1 (Homo sapiens) (UniProt P00519); conditions: Compound concentration 1000.0 nM
# [4] = target: Mitogen-activated protein kinase 12 (Homo sapiens) (UniProt P53778); conditions: Compound concentration 1000.0 nM
# [5] = target: Cytoplasmic tyrosine-protein kinase BMX (Homo sapiens) (UniProt P51813); conditions: Compound concentration 1000.0 nM
# [6] = target: Leukocyte tyrosine kinase receptor (Homo sapiens) (UniProt P29376); conditions: Compound concentration 1000.0 nM
# [7] = target: Serine/threonine-protein kinase ULK2 (Homo sapiens) (UniProt Q8IYT8); conditions: Compound concentration 1000.0 nM
# [8] = target: Tyrosine-protein kinase Mer (Homo sapiens) (UniProt Q12866); conditions: Compound concentration 1000.0 nM
# [9] = system: Tyrosine-protein kinase ABL1 (Homo sapiens), P00519 [F317I]; conditions: Compound concentration 1000.0 nM
# [10] = target: Serine/threonine-protein kinase MRCK gamma (Homo sapiens) (UniProt Q6DT37); conditions: Compound concentration 1000.0 nM
# [11] = target: Leucine-rich repeat serine/threonine-protein kinase 2 (Homo sapiens) (UniProt Q5S007); conditions: Compound concentration 1000.0 nM
# [12] = target: STE20/SPS1-related proline-alanine-rich protein kinase (Homo sapiens) (UniProt Q9UEW8); conditions: Compound concentration 1000.0 nM
# [13] = target: Fibroblast growth factor receptor 1 (Homo sapiens) (UniProt P11362); conditions: Compound concentration 1000.0 nM
# [14] = target: Serine/threonine-protein kinase DCLK3 (Homo sapiens) (UniProt Q9C098); conditions: Compound concentration 1000.0 nM
# [15] = target: Glycogen synthase kinase-3 alpha (Homo sapiens) (UniProt P49840); conditions: Compound concentration 1000.0 nM
# [16] = target: Alpha-2B adrenergic receptor (Homo sapiens) (UniProt P18089); conditions: Compound concentration 10.0 uM
# [17] = target: Cyclin-dependent kinase 7 (Homo sapiens) (UniProt P50613); conditions: Compound concentration 1000.0 nM
# [18] = target: Serine/threonine-protein kinase PLK1 (Homo sapiens) (UniProt P53350); conditions: Compound concentration 1000.0 nM
# [19] = target: Hormonally up-regulated neu tumor-associated kinase (Homo sapiens) (UniProt P57058); conditions: Compound concentration 1000.0 nM
# [20] = target: Serine/threonine-protein kinase Nek1 (Homo sapiens) (UniProt Q96PY6); conditions: Compound concentration 1000.0 nM
# [21] = target: Casein kinase I isoform gamma-1 (Homo sapiens) (UniProt Q9HCP0); conditions: Compound concentration 1000.0 nM
# [22] = target: Misshapen-like kinase 1 (Homo sapiens) (UniProt Q8N4C8); conditions: Compound concentration 1000.0 nM
# [23] = target: Serine/threonine-protein kinase RIO2 (Homo sapiens) (UniProt Q9BVS4); conditions: Compound concentration 1000.0 nM
# [24] = target: Dual specificity testis-specific protein kinase 1 (Homo sapiens) (UniProt Q15569); conditions: Compound concentration 1000.0 nM
# [25] = target: Interleukin-1 receptor-associated kinase 1 (Homo sapiens) (UniProt P51617); conditions: Compound concentration 1000.0 nM
# [26] = target: Death-associated protein kinase 1 (Homo sapiens) (UniProt P53355); conditions: Compound concentration 1000.0 nM
# [27] = target: Serine/threonine-protein kinase/endoribonuclease IRE1 (Homo sapiens) (UniProt O75460); conditions: Compound concentration 1000.0 nM
# [28] = target: Dual specificity tyrosine-phosphorylation-regulated kinase 2 (Homo sapiens) (UniProt Q92630); conditions: Compound concentration 1000.0 nM
# [29] = target: Ephrin type-A receptor 4 (Homo sapiens) (UniProt P54764); conditions: Compound concentration 1000.0 nM
# [30] = target: 5-hydroxytryptamine receptor 2C (Homo sapiens) (UniProt P28335); conditions: Compound concentration 10.0 uM
# [31] = target: MAP kinase-activated protein kinase 5 (Homo sapiens) (UniProt Q8IW41); conditions: Compound concentration 1000.0 nM
# [32] = target: Ribosomal protein S6 kinase alpha-2 (Homo sapiens) (UniProt Q15349); conditions: Compound concentration 1000.0 nM
# [33] = target: LIM domain kinase 1 (Homo sapiens) (UniProt P53667); conditions: Compound concentration 1000.0 nM
# [34] = target: Cyclin-dependent kinase-like 5 (Homo sapiens) (UniProt O76039); conditions: Compound concentration 1000.0 nM
# [35] = target: Mast/stem cell growth factor receptor Kit (Homo sapiens) (UniProt P10721); conditions: Compound concentration 1000.0 nM
# [36] = target: Mitogen-activated protein kinase 13 (Homo sapiens) (UniProt O15264); conditions: Compound concentration 1000.0 nM
# [37] = system: Phosphatidylinositol 4,5-bisphosphate 3-kinase catalytic subunit alpha isoform (Homo sapiens), P42336 [E542K]; conditions: Compound concentration 1000.0 nM
# [38] = target: Serine/threonine-protein kinase 32B (Homo sapiens) (UniProt Q9NY57); conditions: Compound concentration 1000.0 nM
# [39] = target: Myosin light chain kinase (Homo sapiens) (UniProt Q32MK0); conditions: Compound concentration 1000.0 nM
# [40] = target: Ribosomal protein S6 kinase alpha-1 (Homo sapiens) (UniProt Q15418); conditions: Compound concentration 1000.0 nM
# [41] = target: Histamine H1 receptor (Homo sapiens) (UniProt P35367); conditions: Compound concentration 10.0 uM
# [42] = target: Serine/threonine-protein kinase DCLK1 (Homo sapiens) (UniProt O15075); conditions: Compound concentration 1000.0 nM
# [43] = target: Mitogen-activated protein kinase kinase kinase 10 (Homo sapiens) (UniProt Q02779); conditions: Compound concentration 1000.0 nM
# [44] = target: MAP/microtubule affinity-regulating kinase 4 (Homo sapiens) (UniProt Q96L34); conditions: Compound concentration 1000.0 nM
# [45] = system: Receptor-type tyrosine-protein kinase FLT3 (Homo sapiens), P36888 [R834Q]; conditions: Compound concentration 1000.0 nM
# Interleukin-1 receptor-associated kinase 1 (Homo sapiens), sequence (P51617 whole entry, looked up): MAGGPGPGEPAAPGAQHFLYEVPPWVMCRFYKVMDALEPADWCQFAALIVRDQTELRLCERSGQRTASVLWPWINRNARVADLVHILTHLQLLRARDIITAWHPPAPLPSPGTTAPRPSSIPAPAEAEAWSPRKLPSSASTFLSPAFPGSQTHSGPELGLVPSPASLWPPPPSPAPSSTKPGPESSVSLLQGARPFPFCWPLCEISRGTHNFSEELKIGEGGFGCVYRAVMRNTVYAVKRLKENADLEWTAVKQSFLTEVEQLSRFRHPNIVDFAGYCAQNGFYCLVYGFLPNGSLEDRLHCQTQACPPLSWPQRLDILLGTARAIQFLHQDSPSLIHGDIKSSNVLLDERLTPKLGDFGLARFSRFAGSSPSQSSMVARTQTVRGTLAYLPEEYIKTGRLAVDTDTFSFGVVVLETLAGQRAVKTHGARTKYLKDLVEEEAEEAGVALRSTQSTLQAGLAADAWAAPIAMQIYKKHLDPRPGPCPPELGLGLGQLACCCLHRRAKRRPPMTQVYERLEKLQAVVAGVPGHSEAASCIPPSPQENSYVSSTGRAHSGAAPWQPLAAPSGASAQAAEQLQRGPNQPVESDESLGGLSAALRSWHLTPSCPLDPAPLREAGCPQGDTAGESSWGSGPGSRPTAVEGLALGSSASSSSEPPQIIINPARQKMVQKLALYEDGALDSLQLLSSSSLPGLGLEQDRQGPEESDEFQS
# 5-hydroxytryptamine receptor 2C (Homo sapiens), sequence (P28335 whole entry): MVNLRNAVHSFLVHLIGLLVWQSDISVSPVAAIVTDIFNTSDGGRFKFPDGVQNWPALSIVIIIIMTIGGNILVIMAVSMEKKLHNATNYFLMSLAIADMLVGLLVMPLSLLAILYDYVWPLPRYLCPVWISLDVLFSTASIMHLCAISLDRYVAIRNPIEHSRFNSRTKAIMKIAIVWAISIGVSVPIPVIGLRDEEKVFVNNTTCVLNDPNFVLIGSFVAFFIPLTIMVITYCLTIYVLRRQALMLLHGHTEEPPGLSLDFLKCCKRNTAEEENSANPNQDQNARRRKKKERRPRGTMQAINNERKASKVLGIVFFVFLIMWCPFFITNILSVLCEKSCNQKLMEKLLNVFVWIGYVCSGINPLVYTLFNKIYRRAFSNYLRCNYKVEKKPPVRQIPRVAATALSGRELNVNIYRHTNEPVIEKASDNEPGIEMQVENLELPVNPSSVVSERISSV
# Ribosomal protein S6 kinase alpha-1 (Homo sapiens), sequence (Q15418 whole entry): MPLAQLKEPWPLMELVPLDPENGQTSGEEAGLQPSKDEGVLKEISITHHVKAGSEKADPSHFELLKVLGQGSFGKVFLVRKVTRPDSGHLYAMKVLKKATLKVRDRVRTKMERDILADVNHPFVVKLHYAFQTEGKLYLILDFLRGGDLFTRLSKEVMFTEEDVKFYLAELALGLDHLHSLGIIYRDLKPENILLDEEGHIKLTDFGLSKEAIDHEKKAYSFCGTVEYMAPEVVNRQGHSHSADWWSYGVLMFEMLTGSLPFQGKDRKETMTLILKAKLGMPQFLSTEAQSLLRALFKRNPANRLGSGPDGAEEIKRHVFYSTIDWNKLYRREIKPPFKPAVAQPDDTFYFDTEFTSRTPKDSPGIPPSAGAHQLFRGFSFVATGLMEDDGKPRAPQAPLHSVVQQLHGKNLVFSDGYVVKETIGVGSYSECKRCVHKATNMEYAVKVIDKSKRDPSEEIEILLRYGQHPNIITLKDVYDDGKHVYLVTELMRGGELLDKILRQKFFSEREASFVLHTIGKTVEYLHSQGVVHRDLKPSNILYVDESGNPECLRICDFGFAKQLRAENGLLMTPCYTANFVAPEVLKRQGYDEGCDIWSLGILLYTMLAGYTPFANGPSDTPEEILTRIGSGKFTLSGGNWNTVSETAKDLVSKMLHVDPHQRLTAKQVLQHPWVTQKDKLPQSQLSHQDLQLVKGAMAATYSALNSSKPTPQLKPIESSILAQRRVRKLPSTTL
# Serine/threonine-protein kinase RIO2 (Homo sapiens), sequence (Q9BVS4 whole entry, looked up): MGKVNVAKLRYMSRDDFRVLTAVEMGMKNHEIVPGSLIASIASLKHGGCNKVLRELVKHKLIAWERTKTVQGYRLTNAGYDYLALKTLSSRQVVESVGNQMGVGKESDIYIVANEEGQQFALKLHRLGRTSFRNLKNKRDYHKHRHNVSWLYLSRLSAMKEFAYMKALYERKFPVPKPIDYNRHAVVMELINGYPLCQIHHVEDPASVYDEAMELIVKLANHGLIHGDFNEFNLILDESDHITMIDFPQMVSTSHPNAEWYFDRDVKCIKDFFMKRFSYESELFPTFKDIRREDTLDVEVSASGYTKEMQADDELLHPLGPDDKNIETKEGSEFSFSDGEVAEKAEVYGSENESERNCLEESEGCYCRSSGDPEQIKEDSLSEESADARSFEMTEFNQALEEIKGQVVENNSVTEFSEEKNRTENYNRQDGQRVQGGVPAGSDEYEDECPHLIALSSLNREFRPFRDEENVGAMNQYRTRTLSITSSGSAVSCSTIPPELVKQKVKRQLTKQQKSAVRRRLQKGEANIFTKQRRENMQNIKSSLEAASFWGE
# Serine/threonine-protein kinase/endoribonuclease IRE1 (Homo sapiens), sequence (O75460 19-977 limits assumed): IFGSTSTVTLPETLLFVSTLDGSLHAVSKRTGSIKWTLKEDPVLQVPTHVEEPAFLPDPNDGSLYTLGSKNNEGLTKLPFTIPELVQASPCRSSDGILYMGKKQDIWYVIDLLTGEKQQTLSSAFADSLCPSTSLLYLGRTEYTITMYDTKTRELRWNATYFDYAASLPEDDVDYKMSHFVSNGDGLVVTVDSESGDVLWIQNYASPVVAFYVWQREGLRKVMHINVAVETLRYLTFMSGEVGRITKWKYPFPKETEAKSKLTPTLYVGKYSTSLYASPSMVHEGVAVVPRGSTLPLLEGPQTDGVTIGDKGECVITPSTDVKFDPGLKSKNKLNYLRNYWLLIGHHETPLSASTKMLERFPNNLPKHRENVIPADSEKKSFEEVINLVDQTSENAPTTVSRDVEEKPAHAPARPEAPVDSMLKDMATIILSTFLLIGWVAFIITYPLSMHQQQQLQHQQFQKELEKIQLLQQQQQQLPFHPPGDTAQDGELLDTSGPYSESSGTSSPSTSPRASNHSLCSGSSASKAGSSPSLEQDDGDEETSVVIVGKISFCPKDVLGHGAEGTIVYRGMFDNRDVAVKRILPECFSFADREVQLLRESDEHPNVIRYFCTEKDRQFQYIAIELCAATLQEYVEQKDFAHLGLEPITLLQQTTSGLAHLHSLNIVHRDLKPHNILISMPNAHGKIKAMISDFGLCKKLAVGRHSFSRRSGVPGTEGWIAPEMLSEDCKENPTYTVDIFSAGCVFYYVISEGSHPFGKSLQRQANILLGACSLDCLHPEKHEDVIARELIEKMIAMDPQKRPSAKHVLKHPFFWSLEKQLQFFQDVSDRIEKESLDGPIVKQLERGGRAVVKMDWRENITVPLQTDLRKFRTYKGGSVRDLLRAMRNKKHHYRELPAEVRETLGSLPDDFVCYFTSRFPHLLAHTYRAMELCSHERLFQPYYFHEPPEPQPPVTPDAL
# LIM domain kinase 1 (Homo sapiens), sequence (P53667 whole entry, looked up, the tested form may be a part): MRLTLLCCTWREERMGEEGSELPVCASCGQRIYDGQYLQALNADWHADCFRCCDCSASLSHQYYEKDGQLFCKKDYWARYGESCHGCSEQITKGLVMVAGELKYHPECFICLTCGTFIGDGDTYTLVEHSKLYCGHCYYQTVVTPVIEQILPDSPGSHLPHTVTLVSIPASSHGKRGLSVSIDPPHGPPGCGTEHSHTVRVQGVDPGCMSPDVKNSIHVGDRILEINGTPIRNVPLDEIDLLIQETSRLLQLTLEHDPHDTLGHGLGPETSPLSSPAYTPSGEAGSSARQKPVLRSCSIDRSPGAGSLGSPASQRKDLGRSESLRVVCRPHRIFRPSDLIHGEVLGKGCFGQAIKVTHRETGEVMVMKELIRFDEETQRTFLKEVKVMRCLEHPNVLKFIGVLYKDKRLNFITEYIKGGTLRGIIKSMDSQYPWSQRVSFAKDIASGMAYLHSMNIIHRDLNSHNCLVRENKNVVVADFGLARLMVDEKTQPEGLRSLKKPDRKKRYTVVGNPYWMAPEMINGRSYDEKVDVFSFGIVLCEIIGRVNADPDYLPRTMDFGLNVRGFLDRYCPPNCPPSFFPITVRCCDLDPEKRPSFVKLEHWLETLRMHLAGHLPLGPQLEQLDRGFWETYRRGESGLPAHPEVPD
# Tyrosine-protein kinase Mer (Homo sapiens), sequence (Q12866 whole entry): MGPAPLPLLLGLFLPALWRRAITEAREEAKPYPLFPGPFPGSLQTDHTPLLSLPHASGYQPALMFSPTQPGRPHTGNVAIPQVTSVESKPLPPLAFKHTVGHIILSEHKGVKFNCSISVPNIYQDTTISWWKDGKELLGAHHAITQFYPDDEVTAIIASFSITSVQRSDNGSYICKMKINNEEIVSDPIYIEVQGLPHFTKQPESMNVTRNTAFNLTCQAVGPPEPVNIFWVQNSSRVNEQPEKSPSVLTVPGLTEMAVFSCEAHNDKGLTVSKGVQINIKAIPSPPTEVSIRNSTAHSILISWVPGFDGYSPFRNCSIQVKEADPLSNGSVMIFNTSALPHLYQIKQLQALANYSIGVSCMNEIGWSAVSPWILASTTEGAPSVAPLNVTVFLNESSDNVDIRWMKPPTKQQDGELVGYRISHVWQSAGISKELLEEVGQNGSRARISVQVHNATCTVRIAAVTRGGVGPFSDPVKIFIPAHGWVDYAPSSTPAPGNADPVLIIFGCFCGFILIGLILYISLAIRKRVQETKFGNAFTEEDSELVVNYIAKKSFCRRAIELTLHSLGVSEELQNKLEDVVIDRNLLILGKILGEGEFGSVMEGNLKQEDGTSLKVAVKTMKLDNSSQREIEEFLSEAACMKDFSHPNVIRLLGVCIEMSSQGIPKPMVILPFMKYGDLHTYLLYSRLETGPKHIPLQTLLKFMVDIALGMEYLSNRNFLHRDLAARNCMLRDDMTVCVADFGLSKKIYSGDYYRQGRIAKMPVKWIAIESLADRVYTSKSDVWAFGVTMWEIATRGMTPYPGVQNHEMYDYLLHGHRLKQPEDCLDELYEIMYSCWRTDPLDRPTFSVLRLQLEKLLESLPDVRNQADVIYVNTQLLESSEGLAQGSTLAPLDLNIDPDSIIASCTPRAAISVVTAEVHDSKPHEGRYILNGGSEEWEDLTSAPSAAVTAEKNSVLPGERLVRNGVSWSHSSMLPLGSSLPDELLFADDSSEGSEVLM
smiles,measurement,setting,value
C[C@H](NC(=O)c1cnc2n1[C@](C)(Cc1ccc(C#N)cc1)C(=O)N2c1cc(Cl)c(F)c(Cl)c1)C(=O)NC1(c2ccccn2)CC1 [BI 1950],residual activity,[1],100%
same,inhibition,[2],24.1%
same,residual activity,[3],99%
same,residual activity,[4],100%
same,residual activity,[5],77%
same,residual activity,[6],100%
same,residual activity,[7],100%
same,residual activity,[8],99%
same,residual activity,[9],78%
same,residual activity,[10],100%
same,residual activity,[11],100%
same,residual activity,[12],24%
same,residual activity,[13],100%
same,residual activity,[14],100%
same,residual activity,[15],100%
same,inhibition,[16],-3.79%
same,residual activity,[17],94%
same,residual activity,[18],100%
same,residual activity,[19],100%
same,residual activity,[20],59%
same,residual activity,[21],99%
same,residual activity,[22],100%
same,residual activity,[23],100%
same,residual activity,[24],100%
same,residual activity,[25],100%
same,residual activity,[26],100%
same,residual activity,[27],96%
same,residual activity,[28],98%
same,residual activity,[29],100%
same,inhibition,[30],24.3%
same,residual activity,[31],96%
same,residual activity,[32],94%
same,residual activity,[33],100%
same,residual activity,[34],100%
same,residual activity,[35],100%
same,residual activity,[36],100%
same,residual activity,[37],100%
same,residual activity,[38],80%
same,residual activity,[39],100%
same,residual activity,[40],100%
same,inhibition,[41],3.2%
same,residual activity,[42],89%
same,residual activity,[43],100%
same,residual activity,[44],100%
same,residual activity,[45],90%
C[C@@]1(Cc2ccc(C#N)cc2)C(=O)N(c2cc(Cl)cc(Cl)c2)c2ncc(C(=O)NC3(c4nc(C5CCC5)no4)CC3)n21 [BI 9446],residual activity,[1],100%
same,inhibition,[2],29.7%
same,residual activity,[3],100%
same,residual activity,[4],100%
same,residual activity,[5],40%
same,residual activity,[6],100%
same,residual activity,[7],100%
same,residual activity,[8],100%
same,residual activity,[9],96%
same,residual activity,[10],100%
same,residual activity,[11],93%
same,residual activity,[12],91%
same,residual activity,[13],100%
same,residual activity,[14],88%
same,residual activity,[15],100%
same,inhibition,[16],15%
same,residual activity,[17],100%
same,residual activity,[18],100%
same,residual activity,[19],100%
same,residual activity,[20],48%
same,residual activity,[21],92%
same,residual activity,[22],100%
same,residual activity,[23],100%
same,residual activity,[24],100%
same,residual activity,[25],100%
same,residual activity,[26],100%
same,residual activity,[27],82%
same,residual activity,[28],93%
same,residual activity,[29],100%
same,inhibition,[30],32.9%
same,residual activity,[31],100%
same,residual activity,[32],99%
same,residual activity,[33],90%
same,residual activity,[34],100%
same,residual activity,[35],100%
same,residual activity,[36],100%
same,residual activity,[37],83%
same,residual activity,[38],100%
same,residual activity,[39],87%
same,residual activity,[40],100%
same,inhibition,[41],10.3%
same,residual activity,[42],100%
same,residual activity,[43],100%
same,residual activity,[44],100%
same,residual activity,[45],100%
